What was measured:
PDK1 [1] = molecular target: T1, PDK1 (Homo sapiens, UniProt O15530); assay: Cellular testing of PDK1 kinase inhibitors in PC3 cells (Luminex, phospho-T308-PKB); assay type: cell-based; details: 30 min, serum-free
T1 construct: endogenous in cells; host or cells: PC3 cells
T1 sequence (O15530 1-556): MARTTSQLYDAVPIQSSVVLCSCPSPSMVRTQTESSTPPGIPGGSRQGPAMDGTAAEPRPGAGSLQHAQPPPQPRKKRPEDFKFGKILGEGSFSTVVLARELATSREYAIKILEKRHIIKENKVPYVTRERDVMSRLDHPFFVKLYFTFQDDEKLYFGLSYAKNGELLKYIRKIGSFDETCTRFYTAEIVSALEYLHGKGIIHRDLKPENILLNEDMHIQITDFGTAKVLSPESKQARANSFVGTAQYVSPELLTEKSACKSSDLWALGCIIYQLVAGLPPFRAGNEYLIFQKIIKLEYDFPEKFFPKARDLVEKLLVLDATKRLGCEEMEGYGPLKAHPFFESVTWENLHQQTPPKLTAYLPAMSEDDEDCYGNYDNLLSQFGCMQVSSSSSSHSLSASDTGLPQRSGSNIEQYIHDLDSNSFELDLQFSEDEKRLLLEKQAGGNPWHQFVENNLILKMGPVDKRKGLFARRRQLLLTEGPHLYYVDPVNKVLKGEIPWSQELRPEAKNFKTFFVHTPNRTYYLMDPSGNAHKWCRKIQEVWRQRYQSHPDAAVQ
Outline: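 PC3 cells were treated 30 min serum-free with 7-concentration compound series, lysed, and phospho-T308-PKB measured by Luminex bead assay (anti-total PKB capture, phospho-T308 detection). Blank was 10 μM staurosporine; maximum was 0.3% DMSO; IC50 derived from percent of control.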

PDK1 [2] = molecular target: T2, PDK1 (Homo sapiens, UniProt O15530); assay: Test for the inhibition of PDK1 (flashplate, 33P-ATP); details: His6-PDK1 (1-50) 3.4 nM, 4 μM ATP, 30° C., 60 min; read-out: IC50 [PDK1] biochemical
T2 construct: His6 (N)
T2 sequence (O15530 51-556 limits assumed): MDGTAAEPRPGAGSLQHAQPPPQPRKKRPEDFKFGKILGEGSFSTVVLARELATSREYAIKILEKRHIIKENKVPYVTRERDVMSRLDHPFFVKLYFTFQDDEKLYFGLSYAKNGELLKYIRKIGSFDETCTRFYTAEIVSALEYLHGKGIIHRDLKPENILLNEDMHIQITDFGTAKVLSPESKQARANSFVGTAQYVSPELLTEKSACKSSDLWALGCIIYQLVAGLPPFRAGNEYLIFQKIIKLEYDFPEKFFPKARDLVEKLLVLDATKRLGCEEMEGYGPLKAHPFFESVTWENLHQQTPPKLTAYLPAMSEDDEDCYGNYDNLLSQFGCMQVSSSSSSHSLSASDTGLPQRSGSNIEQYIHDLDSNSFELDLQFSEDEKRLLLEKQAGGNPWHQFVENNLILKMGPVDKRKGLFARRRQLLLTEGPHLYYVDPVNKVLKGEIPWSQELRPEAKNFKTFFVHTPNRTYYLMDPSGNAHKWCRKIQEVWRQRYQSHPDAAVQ
Outline: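 His6-PDK1 (1-50) (3.4 nM) with biotinylated peptide substrate (400 nM) and 4 μM ATP plus ^33P-ATP, 60 min at 30° C; incorporated radioactivity counted. Blank from 100 nM staurosporin subtracted, activity expressed as % of compound-free control, IC50 derived from dilution series.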

Structure (SMILES)	IC50 (PDK1 [1])	IC50 (PDK1 [2])
Cn1cc(-c2cnc3[nH]cc(-c4cc(C(O)c5ccccc5)[nH]n4)c3c2)cn1 (stereo not shown) [A74]	0.5 to 1000 nM	0.5 to 1000 nM
Cn1cc(-c2cnc3[nH]cc(-c4n[nH]c(C5(c6ccc(Cl)nc6)CC5)n4)c3c2)cn1 [A122, 3-{5-[1-(6-chloropyridin-3-yl)cyclopropyl]-1H-1,2,4-triazol-3-yl}-5-(1-methyl-1H-pyrazol-4-yl)-1H-pyrrolo[2,3-b]pyridine]	1000 to 10000 nM	1000 to 10000 nM
Cn1cc(-c2cnc3[nH]cc(-c4cc([C@](C)(O)c5cccc(F)c5)on4)c3c2)cn1 (single isomer, unassigned) [A62]	1000 to 10000 nM	0.5 to 1000 nM
COc1ccc(C2(c3nc(-c4c[nH]c5ncc(-c6cnn(C)c6)cc45)n[nH]3)CC2)cn1 [A127, 3-{5-[1-(6-methoxypyridin-3-yl)cyclopropyl]-1H-1,2,4-triazol-3-yl}-5-(1-methyl-1H-pyrazol-4-yl)-1H-pyrrolo[2,3-b]pyridine]	1000 to 10000 nM	1000 to 10000 nM

Other lines, results leading:

IC50 (PDK1 [1])	IC50 (PDK1 [2])	Structure (SMILES)
1000 to 10000 nM	0.5 to 1000 nM	Cn1cc(-c2cnc3[nH]cc(-c4nnc(C5(c6cccnc6)CCCC5)o4)c3c2)cn1 [A110]
1000 to 10000 nM	0.5 to 1000 nM	Cn1cc(-c2cnc3[nH]cc(-c4nnc(C(C)(O)c5ccccc5)o4)c3c2)cn1 (stereo not shown) [A45]
1000 to 10000 nM	0.5 to 1000 nM	Cn1cc(-c2cnc3[nH]cc(-c4nnc(C(O)c5ccccc5)o4)c3c2)cn1 (stereo not shown) [A29]
1000 to 10000 nM	1000 to 10000 nM	Cn1cc(-c2cnc3[nH]cc(-c4nnc(C5(c6ccc(Cl)nc6)CC5)o4)c3c2)cn1 [A123, 3-{5-[1-(6-chloropyridin-3-yl)cyclopropyl]-1,3,4-oxadiazol-2-yl}-5-(1-methyl-1H-pyrazol-4-yl)-1H-pyrrolo[2,3-b]pyridine]

— patent publication US20130245355A1, “3-HETARYL-SUBSTITUTED PYRROLO[2,3 B]PYRIDINE DERIVATIVES AS PDK1 INHIBITORS” (MERCK PATENT GMBH, priority 2010, published 2013)
